# Test results published in US10563263B2, “Genetic polymorphisms associated with statin response and cardiovascular diseases, methods of detection and uses thereof” (CELERA CORPORATION, priority 2010, dated 2020).
# Tested on: CHD (death from CHD, nonfatal MI, or revascularization)
# Experiment: WOSCOPS: SNP by pravastatin treatment interaction, logistic regression (synergy index), CHD endpoint
# Assay type: in vivo, human
# Conditions: for OR (synergy index), WOSCOPS, Prava vs Placebo: CHD endpoint; for OR (synergy index): WOSCOPS
# Source text: CARE was a secondary prevention trial and WOSCOPS was a primary prevention trial.
# The CHD endpoint was defined in the analyses herein of CARE as a composite endpoint of fatal CHD, definite non-fatal MI, or revascularization, and was defined in the analyses herein of WOSCOPS as a composite endpoint of death from CHD, nonfatal MI, or revascularization. In both the CARE and WOSCOPS analyses herein, the CVD endpoint was defined as a composite endpoint of CHD or stroke. […] Revascularization, which can include percutaneous transluminal coronary angioplasty (PTCA), stent placement, and coronary artery bypass graft (CABG), are medical interventions that indicate the presence of CHD.
# Cohort and case-only study designs were used to identify SNPs associated with response to statin treatment.
# For each SNP, a logistic regression model having treatment status as the dependent variable and SNP as the independent predictor variable was performed, with terms for age, sex and race included in the model as covariates. The anti-log of the regression coefficient corresponding to the SNP is an estimate of the synergy index (SI) (Davis et al., “Imputing gene-treatment interactions when the genotype distribution is unknown using case-only and putative placebo analyses-a new method for the Genetics of Hypertension Associated Treatment (GenHAT) study”, Statistics in Medicine 23: (2004), pages 2413-2427). The SI is a ratio of odds ratios: for example in the CARE and WOSCOPS studies, the SI represents the factor by which the odds-ratio of statin treatment, compared with placebo, among major homozygous individuals is multiplied by in order to obtain the odds-ratio of treatment vs. placebo among heterozygous individuals; and multiplied by a second time to obtain the odds-ratio of treatment vs. placebo in minor homozygous individuals. The case-only study design results in a valid estimate of the SI under the assumption that genotype and treatment are independent in the population. In a randomized clinical trial, genotype and treatment are independent by design. The p-value for the regression coefficient corresponding to the SNP results from a test of the null hypothesis that the regression coefficient is equal to zero (SI is equal to one) and thus small p-values indicate the SI is unlikely equal to one and that the effect of treatment likely differs by genotype. […]
compound,measurement,setting,value
"CC[C@H](C)C(=O)O[C@H]1C[C@H](O)C=C2C=C[C@H](C)[C@H](CC[C@@H](O)C[C@@H](O)CC(=O)O)[C@H]21 [Pravastatin, pravastatin]","OR (synergy index), WOSCOPS, Prava vs Placebo","SNP rs198462 (A1 G, A2 A), rec model, Caseonly",2.12
same,"OR (synergy index), WOSCOPS, Prava vs Placebo","SNP rs198476 (A1 G, A2 A), rec model, cohort",1.61
same,"OR (synergy index), WOSCOPS, Prava vs Placebo","SNP rs471579 (A1 A, A2 C), add model, Caseonly",1.62
same,"OR (synergy index), WOSCOPS, Prava vs Placebo","SNP rs1324012 (A1 A, A2 G), add model, Caseonly",0.60
same,"OR (synergy index), WOSCOPS, Prava vs Placebo","SNP rs1917527 (A1 A, A2 C), rec model, Caseonly",0.73
same,"OR (synergy index), WOSCOPS, Prava vs Placebo","SNP rs7873371 (A1 A, A2 G), add model, Caseonly",1.59
same,OR (synergy index),"rs992695, Imputed, allele (A1) C, model ADD, NMISS 431",0.7364
same,OR (synergy index),"rs992695, Imputed, allele (A1) C, model DOM, NMISS 431",0.6065
same,OR (synergy index),"rs9881685, Imputed, allele (A1) A, model ADD, NMISS 431",0.4853
same,OR (synergy index),"rs9881685, Imputed, allele (A1) A, model DOM, NMISS 431",0.4903
same,OR (synergy index),"rs9936999, Imputed, allele (A1) G, model DOM, NMISS 249",1.779
same,WOSCOPS OR,"rs1948, source CaseOnly, model dom, endpoint CHD",1.96
same,WOSCOPS OR,"rs198476, Source cohort",1.61
same,WOSCOPS OR,"rs238272, source CaseOnly, model add, endpoint CHD",1.46
same,WOSCOPS OR,"rs264122, Source cohort",0.66
same,OR (synergy index),"rs483159 allele T, DOM model, Imputed",1.412
same,OR (synergy index),"rs489441 allele G, ADD model, Imputed",1.6
same,OR (synergy index),"rs489441 allele G, DOM model, Imputed",1.651
same,WOSCOPS OR,"rs694780, Source caseonly",0.62
same,WOSCOPS OR,"rs842796, source CaseOnly, model dom, endpoint CHD",1.38
same,WOSCOPS OR,"rs886469, source CaseOnly, model dom, endpoint CHD",0.55
same,WOSCOPS OR,"rs912366, source CaseOnly, model dom, endpoint CHD",1.79
same,WOSCOPS OR,"rs969356, source CaseOnly, model dom, endpoint CHD",0.54
same,WOSCOPS OR,"rs1009748, Source cohort",1.35
same,WOSCOPS OR,"rs1015199, Source caseonly",1.66
same,WOSCOPS OR,"rs1190706, Source cohort",0.70
same,WOSCOPS OR,"rs1336400, Source caseonly",1.35
same,WOSCOPS OR,"rs1538185, source cohort, model dom, endpoint CHD",1.41
same,WOSCOPS OR,"rs1544214, source CaseOnly, model add, endpoint CHD",1.35
same,WOSCOPS OR,"rs1615197, source CaseOnly, model dom, endpoint CHD",2.25
same,WOSCOPS OR,"rs1705244, source CaseOnly, model dom, endpoint CHD",0.52
same,WOSCOPS OR,"rs1864924, source CaseOnly, model add, endpoint CHD",1.36
same,WOSCOPS OR,"rs1877986, source cohort, model dom, endpoint CHD",0.71
same,WOSCOPS OR,"rs1884897, source CaseOnly, model rec, endpoint CHD",1.78
same,WOSCOPS OR,"rs2008165, source cohort, model add, endpoint CHD",0.62
same,WOSCOPS OR,"rs2069542, source CaseOnly, model add, endpoint CHD",1.49
same,WOSCOPS OR,"rs2104506, source CaseOnly, model add, endpoint CHD",0.65
same,WOSCOPS OR,"rs2108425, Source caseonly",0.62
same,WOSCOPS OR,"rs2263901, source CaseOnly, model add, endpoint CHD",1.57
same,WOSCOPS OR,"rs2263920, source CaseOnly, model rec, endpoint CHD",0.41
same,WOSCOPS OR,"rs2265346, source CaseOnly, model dom, endpoint CHD",0.42
same,WOSCOPS OR,"rs2273816, source CaseOnly, model add, endpoint CHD",1.69
same,WOSCOPS OR,"rs2274473, source CaseOnly, model dom, endpoint CHD",0.48
same,WOSCOPS OR,"rs2327412, Source caseonly",1.41
same,WOSCOPS OR,"rs2418412, source cohort, model rec, endpoint CHD",1.58
same,WOSCOPS OR,"rs2616548, Source caseonly",1.37
same,WOSCOPS OR,"rs2648694, Source caseonly",2.29
same,WOSCOPS OR,"rs2655222, Source caseonly",0.20
same,WOSCOPS OR,"rs2941528, source CaseOnly, model add, endpoint CHD",0.58
same,WOSCOPS OR,"rs2993156, Source caseonly",0.76
same,WOSCOPS OR,"rs3732788, source CaseOnly, model add, endpoint CHD",0.44
same,WOSCOPS OR,"rs3759607, source CaseOnly, model dom, endpoint CHD",1.73
same,WOSCOPS OR,"rs3763978, Source cohort",0.68
same,WOSCOPS OR,"rs3998860, source CaseOnly, model add, endpoint CHD",0.70
same,WOSCOPS OR,"rs4240808, Source caseonly",0.61
same,WOSCOPS OR,"rs4242281, Source caseonly",1.46
same,OR (synergy index),"rs4315598 allele T, ADD model, Imputed",1.407
same,OR (synergy index),"rs4315598 allele T, REC model, Imputed",1.414
same,OR (synergy index),"rs4321395 allele A, DOM model, Imputed",0.5278
same,OR (synergy index),"rs4321596 allele T, REC model, Genotyped",3.01
same,OR (synergy index),"rs4324417 allele T, DOM model, Imputed",1.541
same,OR (synergy index),"rs4328619 allele G, DOM model, Genotyped",0.6446
same,OR (synergy index),"rs4338909 allele T, ADD model, Imputed",1.42
same,OR (synergy index),"rs4370878 allele G, DOM model, Imputed",1.497
same,OR (synergy index),"rs4379434 allele T, DOM model, Genotyped",1.603
same,OR (synergy index),"rs4416407 allele T, DOM model, Imputed",1.502
same,OR (synergy index),"rs4417899 allele C, REC model, Imputed",0.6657
same,WOSCOPS OR,"rs4420312, Source caseonly",0.64
same,OR (synergy index),"rs4442732 allele A, ADD model, Imputed",0.7543
same,OR (synergy index),"rs4444612 allele G, ADD model, Imputed",1.407
same,OR (synergy index),"rs4444612 allele G, REC model, Imputed",1.414
same,OR (synergy index),"rs4450660 allele C, DOM model, Imputed",1.776
same,OR (synergy index),"rs4509702 allele C, DOM model, Imputed",1.497
same,OR (synergy index),"rs4533145 allele T, DOM model, Imputed",0.6617
same,OR (synergy index),"rs4557006 allele A, DOM model, Imputed",0.5409
same,OR (synergy index),"rs4570530 allele C, DOM model, Imputed",1.497
same,OR (synergy index),"rs4615971 allele C, DOM model, Imputed",1.474
same,OR (synergy index),"rs4628119 allele A, DOM model, Imputed",0.5304
same,OR (synergy index),"rs4664443 allele G, ADD model, Imputed",0.6931
same,WOSCOPS OR,"rs4682522, source CaseOnly, model dom, endpoint CHD",0.49
same,OR (synergy index),"rs4688259 allele T, DOM model, Imputed",1.502
same,OR (synergy index),"rs4688632 allele G, REC model, Imputed",0.6718
same,OR (synergy index),"rs4695284 allele A, ADD model, Imputed",1.566
same,OR (synergy index),"rs4700302 allele A, ADD model, Imputed",0.5418
same,OR (synergy index),"rs4702720 allele A, ADD model, Imputed",0.7075
same,OR (synergy index),"rs4702720 allele A, DOM model, Imputed",0.7149
same,OR (synergy index),"rs4714484 allele A, ADD model, Imputed",0.5609
